The source of these data is patent US20240131044A1, “METHOD FOR TREATING CANCER” (M.T.3, Inc., priority 2022, published 2024).

Each structure is given as a SMILES string.

For this test, the system named is CHO cells. The experiment in a line: Colony formation, survival fraction of CHO cells. It counts as cell-based, Chinese hamsters. How it is done:
An anti-cancer agent and a pharmaceutical composition were administered to test cells and then the cells were cultured. Then, after colonies were formed, the number of colonies was counted. Here, samples in which the concentration of the anti-cancer agent to be administered was varied were prepared, and in each sample, the survival fraction of the cells compared with the case where cells were cultured without administration of the pharmaceutical composition was measured. Regarding the type of anti-cancer agent to be administered, a predetermined anti-cancer agent was selected depending on the type of administration target cells. Note that cells that were cultured without administration of the pharmaceutical composition and the anti-cancer agent were used as a control. Hereinafter, these steps will be described.
Here, CHO cells, V79 cells, and canine-derived cancer cells were prepared as the test cells. The CHO cells are ovarian cells derived from Chinese hamsters, and the V79 cells are fibroblasts derived from the lungs of Chinese hamsters. Melanoma developing cells (CML6M) and soft tissue sarcoma developing cells (STSA-1) were used as the cancer cells.
The cancer cells were prepared by being cultured using an αMEM culture medium supplemented with 10% serum and an antibiotic. The cancer cells were prepared such that, when the concentration of the cells in a cell suspension obtained by subjecting the cultured cells to PBS washing and trypsin treatment, the concentration was within a predetermined concentration range. Here, the predetermined concentration ranges were 300 cells/well, 100 to 150 cells/well, and 500 to 1000 cells/well for the CHO/V79 cells, the melanoma cells, and the soft tissue sarcoma cells, respectively.
Next, the cancer cells were cultured in culture environments to which the anti-cancer agent was added at various concentrations, and were then allowed to form colonies. The culture periods for colony formation were a week, 10 days, and 14 days for CHO and V79, melanoma, and soft tissue sarcoma, respectively. After colonies were formed, washing using a physiological saline solution, fixation using 100% ethanol, and staining using 0.1% crystal violet were performed, and then the number of colonies per well was counted under a microscope. Note that, here, the colony was defined as containing 50 or more cells. […]
In the above examples, the anti-cancer agent and the pharmaceutical composition were administered to the test cells and then the cells were cultured. In this example, test cells were cultured after administering pharmaceutical composition (SQAP) alone without administering the anti-cancer agent to the test cells, and then the number of colonies was counted after colonies were formed. […]

Turning to `CCCCCCCCCCCCCCCCCC(=O)OCCCO[C@H]1O[C@H](CS(=O)(=O)O)[C@@H](O)[C@H](O)[C@H]1O` [SQAP, sulfoquinovosylacylpropanediol], the survival fraction entry is “about 75%” (SQAP 30 μM alone), “about 1%” (mitomycin C 500 nM + SQAP 30 μM) and “about 1%” (mitomycin C 500 μM + SQAP 30 μM (as restated in Example 10)).
